US20150196514A1, “METHOD OF TREATING CARDIOVASCULAR EVENTS USING COLCHICINE CONCURRENTLY WITH AN ANTITHROMBOTIC DRUG” (Murray and Poole Enterprises Limited, priority 2012, published 2015)

Legend:
[1] = test system: patients with acute pericarditis; conditions: at 18 months, colchicine 1.0 to 2.0 mg first day then 0.5 to 1.0 mg/day for 3 months added to conventional treatment, p=0.004; cited from earlier work
[2] = test system: patients with a first episode of recurrent pericarditis; conditions: at 18 months, colchicine 1.0-2.0 mg first day then 0.5-1.0 mg/d for 6 months added to conventional treatment; cited from earlier work
[3] = test system: patients with clinically stable coronary disease; assay: LoDoCo Trial: colchicine 0.5 mg/day added to standard secondary prevention therapies
Protocol: To assess the therapeutic effects of an immediate release formulation in patients with cardiovascular disease, a prospective randomized observer blinded end-point trial was conducted to determine whether adding 0.5 mg/day of colchicine to standard secondary prevention therapies including aspirin and high dose statins reduces the risk of cardiovascular events in patients with objectively diagnosed and clinically stable coronary disease.
Eligible consenting patients with established coronary disease presenting for routine clinical review were randomized to receive colchicine 0.5 mg/day or no colchicine without any other change to their medical therapy. All outcomes were evaluated by an experienced adjudicator blinded to the treatment allocation.
It was planned to recruit a study population that would include 500 patients planned (532 patients randomized as 32 dropped out early), 250 randomized to the control group and 250 patients randomized to treatment who were tolerant of colchicine for at least 4 weeks after the date of their randomization. Patients were eligible for inclusion if they met each of the following criteria: 1) angiographically proven coronary disease; 2) aged 35 to 85 years; 3) clinically stable for at least 6 months, 4) no major competing co-morbidities or contra-indication to colchicine therapy, 5) considered to be compliant with therapy and attending routine cardiology follow up appointments, and 6) willing to be consented and randomized into the study. Patients with a history of bypass surgery were only eligible if they had undergone bypass surgery more than 10 years before, or had angiographic evidence of graft failure or had undergone stenting since their bypass surgery. All patients signed informed consent before randomization.
The randomization sequence was computer generated, kept concealed from the investigators at all times and was managed by a research assistant who had no involvement in the evaluation or management of study patients. […] Despite electing to use the lowest dose of colchicine available, it was anticipated that a number of patients would withdraw from therapy early after randomization due to gastrointestinal side effects. In order to ensure that the requisite number of patients in the treatment arm were actually tolerant of treatment, the protocol allowed for the research assistant to assign a newly recruited patient to treatment if a patient discontinued colchicine due to side effects in the first month. Patients who were intolerant to therapy remained in the study, and were followed in the usual manner and included in the primary intention to treat analysis.
The drug was dispensed by their usual chemist, and if requested, patients were reimbursed for the cost of these scripts. All other treatments were continued as usual.
Patient compliance with treatment and outcome data were collected at routine follow up visits and at the time of any unplanned hospital admission. An acute coronary syndrome (ACS) was defined as either (a) Acute Myocardial Infarction (AMI), as evidenced by acute ischemic chest pain associated with a rise in serum troponin above the upper limit of normal or (b) Unstable Angina (UA), as evidenced by a recent acceleration of the patient's angina unassociated with a rise in serum troponin but associated with angiographic evidence of a change in the patient's coronary anatomy. […] The ACS was characterized as being stent-related if there was evidence of significant in-stent stenosis or acute stent thrombosis. Out of Hospital Cardiac Arrest was defined as either a sudden death as evidenced on the patient's death certificate, or a non-fatal out of hospital cardiac arrest, defined as a recovery from sudden collapse associated with documented asystole, ventricular tachycardia or ventricular fibrillation.

[4] = No treatment (no antithrombotic drug), colchicine group 1
[5] = Treated with Aspirin + clopidogrel + warfarin, colchicine group 2
[6] = Treated with Aspirin + clopidogrel, colchicine group 33
[7] = Treated with Aspirin + warfarin, colchicine group 6
[8] = Treated with Aspirin alone, colchicine group 173
[9] = Treated with Clopidogrel alone or warfarin alone (no aspirin), colchicine group 28
[10] = Treated with Clopidogrel alone, colchicine group 12
[11] = Treated with Warfarin alone, colchicine group 16
[12] = Treated with a least one antiplatelet drug (at least aspirin, clopidogrel or combinations thereof), colchicine group 226
[13] = Treated with at least aspirin, colchicine group 214
[14] = Treated with at least one antithrombotic drugs (at least aspirin, clopidogrel or warfarin or combinations thereof), colchicine group 242
[15] = intention to treat, 282 patients

In the case of CC(=O)Oc1ccccc1C(=O)O [aspirin], the recurrence rate [1] is given as 32.3% and the “recurrence rate (actuarial rates)” value [2] is given as 50.6%.

With COc1cc2c(c(OC)c1OC)-c1ccc(OC)c(=O)cc1[C@@H](NC(C)=O)CC2 [colchicine, N[5,6,7,9-tetrahydro-1,2,3,10-tetratmethoxy 9-oxobenzo[a]heptalen-7-yl],(S)-acetamide] the “early intolerance due to gastrointestinal side effects, incidence” value ([3]; 282 randomized to treatment) was 11%, the “Primary Outcome, number of patients” value [3, 4] was 0 (0%) and the “Primary Outcome, percent” value [3, 4] was 0 (0%). The “Primary Outcome, number of patients” value ([3]; Total*, colchicine group 243) was 11, the “Primary Outcome, percent” value ([3]; Total*, colchicine group 243) was 4.5% and the “Primary Outcome, number of patients” value [3, 5] was 0 (0%). For the same compound, the “Primary Outcome, percent” value [3, 5] was 0 (0%), the “Primary Outcome, number of patients” value [3, 6] was 3 and the “Primary Outcome, percent” value [3, 6] was 9%. The “Primary Outcome, number of patients” value [3, 7] was 0 (0%), the “Primary Outcome, percent” value [3, 7] was 0 (0%) and the “Primary Outcome, number of patients” value [3, 8] was 7. The “Primary Outcome, percent” value [3, 8] was 4%, the “Primary Outcome, number of patients” value [3, 9] was 1 and the “Primary Outcome, percent” value [3, 9] was 3.45%. The “Primary Outcome, number of patients” value [3, 10] was 1, the “Primary Outcome, percent” value [3, 10] was 8.3% and the “Primary Outcome, number of patients” value [3, 11] was 0 (0%). The “Primary Outcome, percent” value [3, 11] was 0 (0%), the “Primary Outcome, number of patients” value [3, 12] was 11 and the “Primary Outcome, percent” value [3, 12] was 4.9%. For the same compound, the “Primary Outcome, number of patients” value [3, 13] was 10, the “Primary Outcome, percent” value [3, 13] was 4.67% and the “Primary Outcome, number of patients” value [3, 14] was 11. For the same compound, the “Primary Outcome, percent” value [3, 14] was 4.5%, the “risk of a cardiovascular event, including an ACS, out of hospital cardiac arrest and non-cardio-embolic ischemic stroke” value ([3]; colchicine 0.5 mg/day added to standard therapy in patients with stable coronary disease) was “significantly reduces the risk” and the “patients who died of non-cardiac causes” value ([3]; colchicine group) was 4 patients. The patients who died ([3]; colchicine group, study period) was 4 patients, the “ACS unrelated to stent disease associated with UA, incidence” value [3, 15] was 1.8% and the “ACS unrelated to stent disease associated with an AMI, incidence” value [3, 15] was 1.4%. The “ACS unrelated to stent disease, incidence” value [3, 15] was 3.2%, the “ACS, incidence” value [3, 15] was 4.6% and the “primary outcome, incidence” value ([3]; intention to treat, 282 patients assigned to colchicine 0.5 mg/day, median follow up 36 months) was 5.3%. The “primary outcome, hazard ratio” value ([3]; intention to treat, colchicine vs control group, 95% CI 0.18-0.59, p<0.001) was 0.33, the “ACS unrelated to stent disease associated with UA, patients” value ([3]; intention to treat, of 282) was 5 and the “ACS unrelated to stent disease associated with an AMI, patients” value ([3]; intention to treat, of 282) was 4. The “ACS unrelated to stent disease, patients” value ([3]; intention to treat, of 282) was 9, the “patients presenting with an ACS” value ([3]; intention to treat, of 282) was 13 and the “primary outcome (ACS, out of hospital cardiac arrest or non-cardio-embolic ischemic stroke), patients with event” value ([3]; intention to treat, of 282 patients assigned to colchicine 0.5 mg/day, median follow up 36 months) was 15 patients. The “early intolerance due to gastrointestinal side effects, patients” value ([3]; of 282 randomized to treatment) was 32, the “events (primary outcome), hazard ratio” value ([3]; on-treatment vs control, 95% CI 0.15-0.56, p<0.001) was 0.29 and the “events (primary outcome), incidence” value ([3]; on-treatment: compliant and tolerant to therapy beyond the first month, 243 patients) was 4.5%. The “events (primary outcome), patients” value ([3]; on-treatment: compliant and tolerant to therapy beyond the first month, of 243) was 11, the “stent related ACS with evidence of acute stent thrombosis, patients” value ([3]; per group) was 2 and the “stent related ACS with evidence of significant in-stent stenosis, patients” value ([3]; per group) was 2. The “number needed to treat” value ([3]; primary outcome, intention to treat) was 11, the “out of hospital cardiac arrest and non-cardio-embolic ischemic stroke” value ([3]; treatment group vs control, infrequent events) was “reduced” and the “AMI unrelated to stent disease, hazard ratio” value ([3]; vs control, 95% CI 0.08-0.76, p=0.014) was 0.25. For the same compound, the “UA unrelated to stent disease, hazard ratio” value ([3]; vs control, 95% CI 0.10-0.75, p=0.011) was 0.27, the “ACS unrelated to stent disease, hazard ratio” value ([3]; vs control, 95% CI 0.12-0.55, p<0.001) was 0.26 and the “ACS, hazard ratio” value ([3]; vs control, 95% CI 0.18-0.63, p<0.001) was 0.33. For the same compound, the recurrence rate [1] was 10.7% and the “recurrence rate (actuarial rates)” value [2] was 24.0%.
